Assay results from US11479580B2, “Polypeptide expressed in the stratum corneum and use thereof” (CENTRE NATIONAL DE LA RECHERCHE SCIENTIFIQUE—CNRS, priority 2010, dated 2022).
One block for each substance: values may come before it.

Columns and labels:
[1] = system: transglutaminases present in the granular layer of the human epidermis; test: In situ binding assay of biotinylated polypeptides on cryosections of human abdominal skin; assay type: biochemical; conditions: 100 μM; for marking of the contour of the granular keratinocytes (polypeptide bound to cornified envelopes): 5 mM CaCl2, 2 h at room temperature, confocal microscope; for marking of the granular keratinocytes, negative control: 100 mM EDTA, absence of calcium
Protocol: To determine what region of the LCE6A protein is necessary for binding by the transglutaminases, the applicant arranged for the company MilleGen to synthesize various polypeptides, biotinylated at their N-terminal end, with a length of 9 to 13 amino acids, corresponding to different regions of the amino acid sequence of LCE6A.
These polypeptides were used in binding assays in situ. Cryosections of human abdominal skin, saturated by incubation in the presence of bovine albumin at 1% in PBS for 30 minutes at room temperature, were brought into contact with 100 mM Tris (pH 7.4) containing 100 μM of biotinylated polypeptide and 5 mM of CaCl2. After incubation for 2 h at room temperature, the reaction is stopped by adding EDTA at 25 mM for 5 minutes. The sections are then incubated in PBS containing 1% of SDS to destroy the noncovalent bonds.
The presence of biotinylated polypeptides bound to the cornified envelopes by the transglutaminases that are present and active in the tissue is detected by incubation of the sections with streptavidin-AlexaFluor555 at 5 μg/ml (Invitrogen) and visualization in the confocal microscope.
A positive control is performed in a similar experiment but by incubating the sections with 100 μM of cadaverine coupled to AlexaFluor555 (Invitrogen) instead of the polypeptides. For the negative controls, the cryosections are incubated with each biotinylated polypeptide or with cadaverine coupled to AlexaFluor555 but incubation is carried out in the presence of 100 mM of EDTA and in the absence of calcium.

[2] = system: endogenous transglutaminase; test: In vitro crosslinking binding assay with short peptide analogues of LCE6A fragments on human skin cryosections; assay type: biochemical; conditions: for labelling of the contour of the granular keratinocytes (peptide crosslinked to cornified envelopes) / labelling of the granular keratinocytes, negative control: 100 μM; for labelling of the contour of the granular keratinocytes (peptide crosslinked to cornified envelopes): 5 mM CaCl2, 2 h at room temperature, fluorescence microscope; for labelling of the granular keratinocytes, negative control: in the presence of EDTA, absence of calcium
Protocol: Protocol: The following short peptides derived from the amino acid sequences PEVQKP of LCE6A (amino-acids 49 to 54 of SEQ ID NO:2), which sequences meet the criteria defined above and are biotinylated at their amino-terminus, were synthesized: PGVQKP (SEQ ID NO: 7), PEGQKP (SEQ ID NO: 8), GEVQKP (SEQ ID No: 9), PEVQKG (SEQ ID No: 10).
These peptides were used at a concentration of 100 μM in in situ binding assays. Cryosections of human abdominal skin, saturated by incubation in the presence of bovine albumin at 1% in PBS for 30 minutes at room temperature, were brought into contact with 100 mM Tris (pH 7.4) containing 100 μM of biotinylated polypeptide and 5 mM of CaCl2). After incubation for 2 h at room temperature, the reaction was stopped by adding EDTA at 25 mM for 20 minutes. The sections were then incubated in PBS containing 1% of SDS to destroy the noncovalent bonds. The presence of biotinylated polypeptides bound to the cornified envelopes by the transglutaminases that are present and active in the tissue was detected by incubation of the sections with streptavidin-AlexaFluor555 at 5 μg/ml (Invitrogen) and visualization in the fluorescence microscope. A positive control was performed in a similar experiment but by incubating the sections with 100 μM of the peptide PEVQKP of LCE6A (amino-acids 49 to 54 of SEQ ID NO: 2). For the negative control, the cryosections were incubated with each biotinylated polypeptide but incubation was carried out in the presence of 100 mM of EDTA and in the absence of calcium.

- labelling of the granular keratinocytes, negative control [2]: Absence of labelling
Substance: PEVQKG (Designed peptide based on homology to amino acid residue 49 to 54 from Protein LCE6A)
- ability to bind cornified envelopes (conclusion) [2]: possesses the ability to bind cornified envelopes
- labelling of the contour of the granular keratinocytes (peptide crosslinked to cornified envelopes) [2]: strong labelling of the contour of the granular keratinocytes

- labelling of the granular keratinocytes, negative control [2]: Absence of labelling
Substance: PEVQKP (fragment)
- labelling of the contour of the granular keratinocytes (peptide crosslinked to cornified envelopes) [2]: labelling of the contour of the granular keratinocytes

- marking of the granular keratinocytes, negative control [1]: no marking is obtained
Substance: SEQ ID NO: 4: polypeptide fragment of LCE6A, 9 to 13 amino acids, sequence not printed in the text (SSQRPEVQKPR; Designed peptide based on homology to amino acid residue 45 to 55 from Protein LCE6A)

- marking of the granular keratinocytes, negative control [1]: no marking is obtained
Substance: SEQ ID NO: 5: polypeptide fragment of LCE6A, 9 to 13 amino acids, sequence not printed in the text (EVQKPRRARQKLR; Designed peptide based on homology to amino acid residue 50 to 62 from Protein LCE6A)

Further lines, the substance ahead of its results:

Substance: EVAKPRRARQALR (Mutated peptide of SEQ ID NO 5) [reference compound]
- marking of the contour of the granular keratinocytes (polypeptide bound to cornified envelopes) [1]: does not give any pericellular marking

Substance: MSQAKQQSW (Mutated peptide of SEQ ID NO 3) [reference compound]
- marking of the contour of the granular keratinocytes (polypeptide bound to cornified envelopes) [1]: does not give any pericellular marking

Substance: RPAPPPISGGGYRAR (Control peptide of SEQ ID NO 19) [reference compound]
- marking of the contour of the granular keratinocytes (polypeptide bound to cornified envelopes) [1]: does not give any pericellular marking

Substance: SEQ ID NO: 3: polypeptide fragment of LCE6A, 9 to 13 amino acids, sequence not printed in the text (MSQQKQQSW; Designed peptide based on homology to amino acid residue 1 to 9 from Protein LCE6A)
- marking of the granular keratinocytes, negative control [1]: no marking is obtained
